A value given as a limit tells only on which side of the number the result lay.

We go through 16 compounds from patent publication US11339130B1 (Blade Therapeutics, Inc., priority 2016, dated 2022).

What all share (format): biochemical
Assay [1] concerns the target T1, Human Calpain 1/NS1 (Homo sapiens, UniProt P07384).
T1 sequence (P07384 1-714): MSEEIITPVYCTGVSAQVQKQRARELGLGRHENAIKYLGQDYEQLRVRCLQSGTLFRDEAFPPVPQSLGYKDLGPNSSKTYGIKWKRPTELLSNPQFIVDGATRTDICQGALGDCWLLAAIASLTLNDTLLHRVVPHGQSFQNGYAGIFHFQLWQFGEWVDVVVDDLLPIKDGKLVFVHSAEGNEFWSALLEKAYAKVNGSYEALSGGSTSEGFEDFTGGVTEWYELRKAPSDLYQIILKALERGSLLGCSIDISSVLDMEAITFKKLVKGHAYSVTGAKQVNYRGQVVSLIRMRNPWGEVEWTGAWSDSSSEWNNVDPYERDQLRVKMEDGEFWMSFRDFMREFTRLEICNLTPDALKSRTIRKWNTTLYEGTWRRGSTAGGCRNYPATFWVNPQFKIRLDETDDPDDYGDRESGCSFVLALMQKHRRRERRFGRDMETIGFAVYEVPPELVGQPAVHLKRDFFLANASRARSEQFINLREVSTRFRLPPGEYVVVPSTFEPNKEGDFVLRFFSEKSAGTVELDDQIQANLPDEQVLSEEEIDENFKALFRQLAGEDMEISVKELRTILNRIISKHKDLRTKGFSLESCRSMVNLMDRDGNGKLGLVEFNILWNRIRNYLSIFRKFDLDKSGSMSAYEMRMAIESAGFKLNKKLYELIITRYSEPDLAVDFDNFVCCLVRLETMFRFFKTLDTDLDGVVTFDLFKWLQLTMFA
T1 sequence (P04632 1-268 partner): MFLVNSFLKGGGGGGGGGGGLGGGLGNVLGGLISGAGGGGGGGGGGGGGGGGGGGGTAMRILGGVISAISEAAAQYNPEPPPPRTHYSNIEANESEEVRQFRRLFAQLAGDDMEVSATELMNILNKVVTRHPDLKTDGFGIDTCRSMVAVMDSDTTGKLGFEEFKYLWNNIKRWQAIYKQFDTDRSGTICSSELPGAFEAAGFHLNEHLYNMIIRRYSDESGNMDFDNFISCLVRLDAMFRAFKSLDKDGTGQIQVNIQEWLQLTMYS
Nature of the assay: Calpain inhibition continuous fluorescence (FRET) assay, Human Calpain 1/NS1. To be noted: Column A; read-out: Human Calpain 1/NS1 IC50. The gist of the method:
(§1)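 Inhibitors were preincubated with calpain in 50 mM Tris pH 7.5, 100 mM NaCl, 1 mM DTT at 25C. Reactions were started with 5-FAM/QXL 520 FRET peptide substrate plus CaCl2 and read at 490/520 nm for 10 min. IC50s came from 4-parameter fits of slope rates (1-5 min).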

For assay [2], the target named is T2, Human Calpain 2/NS1 (Homo sapiens, UniProt P17655).
T2 sequence (P17655 1-700): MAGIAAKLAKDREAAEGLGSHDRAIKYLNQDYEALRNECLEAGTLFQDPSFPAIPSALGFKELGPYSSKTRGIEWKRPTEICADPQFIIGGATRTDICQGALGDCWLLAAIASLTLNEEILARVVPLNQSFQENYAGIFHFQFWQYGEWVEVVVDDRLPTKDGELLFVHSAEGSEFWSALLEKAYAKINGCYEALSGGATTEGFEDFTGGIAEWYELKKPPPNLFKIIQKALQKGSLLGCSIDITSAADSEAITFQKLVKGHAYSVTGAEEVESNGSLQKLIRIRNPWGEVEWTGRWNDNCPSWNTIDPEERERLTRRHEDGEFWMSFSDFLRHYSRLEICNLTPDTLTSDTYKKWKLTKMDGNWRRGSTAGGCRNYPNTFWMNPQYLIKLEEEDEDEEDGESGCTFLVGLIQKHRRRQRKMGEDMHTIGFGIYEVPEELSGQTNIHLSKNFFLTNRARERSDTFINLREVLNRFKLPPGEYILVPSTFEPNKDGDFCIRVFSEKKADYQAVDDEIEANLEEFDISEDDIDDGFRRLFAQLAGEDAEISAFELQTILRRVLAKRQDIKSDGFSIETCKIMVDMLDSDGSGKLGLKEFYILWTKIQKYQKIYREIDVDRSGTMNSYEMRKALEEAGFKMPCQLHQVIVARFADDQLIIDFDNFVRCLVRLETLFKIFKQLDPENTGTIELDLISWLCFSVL
T2 sequence (P04632 1-268 partner): T1 sequence (P04632 1-268 partner)
Nature of the assay: Calpain inhibition continuous fluorescence (FRET) assay, Human Calpain 2/NS1. The note with it: Column B; read-out: Human Calpain 2/NS1 IC50. In outline:
as §1

The target of assay [3] is T3, Human Calpain 9/NS1 (Homo sapiens, UniProt O14815).
T3 sequence (O14815 1-690): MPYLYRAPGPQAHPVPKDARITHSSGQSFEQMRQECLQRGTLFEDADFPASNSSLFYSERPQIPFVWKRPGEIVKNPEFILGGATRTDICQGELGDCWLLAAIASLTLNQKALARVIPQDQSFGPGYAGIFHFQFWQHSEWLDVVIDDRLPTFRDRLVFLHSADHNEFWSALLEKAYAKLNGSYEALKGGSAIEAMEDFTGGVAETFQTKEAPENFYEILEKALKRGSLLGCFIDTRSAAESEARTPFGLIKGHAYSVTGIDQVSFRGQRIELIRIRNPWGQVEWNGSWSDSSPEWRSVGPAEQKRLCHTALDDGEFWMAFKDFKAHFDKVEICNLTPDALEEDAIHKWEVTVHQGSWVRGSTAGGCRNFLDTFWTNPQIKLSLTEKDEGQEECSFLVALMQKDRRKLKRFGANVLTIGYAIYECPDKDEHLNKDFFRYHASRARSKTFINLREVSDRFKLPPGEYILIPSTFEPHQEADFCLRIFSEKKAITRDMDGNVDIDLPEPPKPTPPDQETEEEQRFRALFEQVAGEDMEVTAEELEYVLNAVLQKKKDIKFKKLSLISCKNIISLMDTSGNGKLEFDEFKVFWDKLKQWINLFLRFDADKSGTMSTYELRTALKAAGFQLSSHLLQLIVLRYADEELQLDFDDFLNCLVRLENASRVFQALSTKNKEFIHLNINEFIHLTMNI
T3 sequence (P04632 1-268 partner): T1 sequence (P04632 1-268 partner)
Nature of the assay: Calpain inhibition continuous fluorescence (FRET) assay, Human Calpain 9/NS1. The note with it: Column C; read-out: Human Calpain 9/NS1 IC50. In outline: as §1

With `Cc1nc(C(=O)N[C@@H](Cc2ccccc2)C(=O)C(N)=O)c(-c2ccccc2)[nH]1` [Compound 79, (S)—N-(4-amino-3,4-dioxo-1-phenylbutan-2-yl)-2-methyl-5-phenyl-1H-imidazole-4-carboxamide], the IC50 in assay [1], in assay [2] and in assay [3] was less than 3 µM each time.

For `Cc1cc(C(=O)N[C@@H](Cc2ccccc2)C(=O)C(N)=O)nn1-c1nc(-c2ccccc2)cs1` [Compound 80, (S)—N-(4-amino-3,4-dioxo-1-phenylbutan-2-yl)-5-methyl-1-(4-phenylthiazol-2-yl)-1H-pyrazole-3-carboxamide], the results for the IC50 in assay [1], in assay [2] and in assay [3] were 3 to 10 µM, less than 3 µM and 3 to 10 µM, respectively.

Take `Cc1cc(C(=O)N[C@@H](Cc2ccccc2)C(=O)C(=O)NC2CC2)n(-c2cnccn2)n1` [Compound 85, (S)—N-(4-(cyclopropylamino)-3,4-dioxo-1-phenylbutan-2-yl)-3-methyl-1-(pyrazin-2-yl)-1H-pyrazole-5-carboxamide]: the IC50 in assay [1], in assay [2] and in assay [3] was less than 3 µM throughout.

`O=C(NC1CC1)C(=O)[C@H](Cc1ccccc1)NC(=O)c1scnc1-n1ncc2ccccc21` [Compound 86, (S)—N-(4-(cyclopropylamino)-3,4-dioxo-1-phenylbutan-2-yl)-4-(1H-indazol-1-yl)thiazole-5-carboxamide]: the IC50 in assay [1], in assay [2] and in assay [3] was less than 3 µM in each case.

On to `O=C(NC1CC1)C(=O)[C@H](Cc1ccccc1)NC(=O)c1scnc1-n1cc(-c2ccccc2)cn1` [Compound 87, (S)—N-(4-(cyclopropylamino)-3,4-dioxo-1-phenylbutan-2-yl)-4-(4-phenyl-1H-pyrazol-1-yl)thiazole-5-carboxamide], for which the values for the IC50 in assay [1], in assay [2] and in assay [3] were more than 10 µM, less than 3 µM and less than 3 µM, respectively.

Consider `NC(=O)C(=O)[C@H](Cc1ccccc1)NC(=O)c1cncn1-c1cc(-c2ncco2)ccn1` [Compound 88, (S)—N-(4-amino-3,4-dioxo-1-phenylbutan-2-yl)-1-(4-(oxazol-2-yl)pyridin-2-yl)-1H-imidazole-5-carboxamide], for which the IC50 in assay [1], in assay [2] and in assay [3] was less than 3 µM each time.

As for `O=C(NC1CC1)C(=O)[C@H](Cc1ccccc1)NC(=O)c1cncn1-c1ccc(-c2ncco2)cn1` [Compound 89, (S)—N-(4-(cyclopropylamino)-3,4-dioxo-1-phenylbutan-2-yl)-1-(5-(oxazol-2-yl)pyridin-2-yl)-1H-imidazole-5-carboxamide], the IC50 in assay [1] is less than 3 µM; in assay [2], less than 3 µM; in assay [3], 3 to 10 µM.

Regarding `O=C[C@H](Cc1ccccc1)NC(=O)c1cncn1-c1nc2ccccc2[nH]1` [Compound 90, (S)-1-(1H-benzo[d]imidazol-2-yl)-N-(1-oxo-3-phenylpropan-2-yl)-1H-imidazole-5-carboxamide], the IC50 in assay [1] is less than 3 µM; in assay [2] it was less than 3 µM; in assay [3], 3 to 10 µM.

Turning to `O=C[C@H](Cc1ccccc1)NC(=O)c1cncs1` [Compound 91, (S)—N-(1-oxo-3-phenylpropan-2-yl)thiazole-5-carboxamide], the IC50 was 3 to 10 µM in assay [1], less than 3 µM in assay [2] and 3 to 10 µM in assay [3].

With `O=C[C@H](Cc1ccccc1)NC(=O)c1cccc2nc(-c3ccccc3)[nH]c12` [Compound 92, (S)—N-(1-oxo-3-phenylpropan-2-yl)-2-phenyl-1H-benzo[D]imidazole-7-carboxamide], the IC50 in assay [1] was 3 to 10 µM; in assay [2] it was 3 to 10 µM; in assay [3] it was less than 3 µM.

In the case of `C=CCOc1ccc(C[C@@H](C=O)NC(=O)c2cc(C)nn2-c2ccccn2)cc1` [Compound 93, (S)—N-(1-(4-(allyloxy)phenyl)-3-oxopropan-2-yl)-3-methyl-1-(pyridin-2-yl)-1H-pyrazole-5-carboxamide], the IC50 in assay [1], in assay [2] and in assay [3] was less than 3 µM each time.

Consider `Cn1nc(-c2ccccc2)c(C(=O)N[C@@H](Cc2ccccc2)C(=O)C(N)=O)c1Cl` [Compound 94, (S)—N-(4-amino-3,4-dioxo-1-phenylbutan-2-yl)-5-chloro-1-methyl-3-phenyl-1H-pyrazole-4-carboxamide], for which the IC50 in assay [1], in assay [2] and in assay [3] was less than 3 µM in each case.

Regarding `Cc1nsc(-c2ccccc2)c1C(=O)N[C@@H](Cc1ccccc1)C(=O)C(N)=O` [Compound 96, (S)—N-(4-amino-3,4-dioxo-1-phenylbutan-2-yl)-3-methyl-5-phenylisothiazole-4-carboxamide], the IC50 in assay [1], in assay [2] and in assay [3] was less than 3 µM each time.

`Cc1cc(C)cc(C[C@H](NC(=O)c2c(C)noc2-c2ccccc2)C(=O)C(N)=O)c1` [Compound 97, (S)—N-(4-amino-1-(3,5-dimethylphenyl)-3,4-dioxobutan-2-yl)-3-methyl-5-phenylisoxazole-4-carboxamide]: the IC50 in assay [1], in assay [2] and in assay [3] was less than 3 µM throughout.

On to `Cc1noc(-c2ccccc2)c1C(=O)N[C@@H](Cc1ccccc1)C(=O)C(=O)NC1CC1` [Compound 100, (S)—N-(4-(cyclopropylamino)-3,4-dioxo-1-phenylbutan-2-yl)-3-methyl-5-phenylisoxazole-4-carboxamide], for which the IC50 in assay [1], in assay [2] and in assay [3] was less than 3 µM each time.

On to `Cc1noc(-c2ccccc2)c1C(=O)N[C@@H](Cc1ccccc1)C(=O)C(=O)NCc1ccc(Cl)c(Cl)c1` [Compound 101, (S)—N-(4-((3,4-dichlorobenzyl)amino)-3,4-dioxo-1-phenylbutan-2-yl)-3-methyl-5-phenylisoxazole-4-carboxamide], for which the IC50 in assay [1], in assay [2] and in assay [3] was more than 10 µM each time.
